{"source": "paper PMC10938783", "about": "“A novel pan-PI3K inhibitor KTC1101 synergizes with anti-PD-1 therapy by targeting tumor suppression and immune activation” (Molecular Cancer, 2024)", "tested_on": "B16 cells gene expression", "test": "RNA-Seq (DEGs, GSEA, heatmaps) of B16 cells", "conditions": "B16 cells, KTC 0.2μM", "key": {"[1]": {"conditions": "GSEA gene set HALLMARK_PI3K_AKT_MTOR_SIGNALING"}, "[2]": {"conditions": "GSEA gene set HALLMARK_PROTEIN_SECRETION"}, "[3]": {"conditions": "GSEA gene set HALLMARK_REACTIVE_OXIGEN_SPECIES_PATHWAY"}, "[4]": {"conditions": "GSEA gene set HALLMARK_SPERMATOGENESIS"}, "[5]": {"conditions": "GSEA gene set HALLMARK_TGF_BETA_SIGNALING"}, "[6]": {"conditions": "GSEA gene set HALLMARK_TNFA_SIGNALING_VIA_NFKB"}, "[7]": {"conditions": "GSEA gene set HALLMARK_UNFOLDED_PROTEIN_RESPONSE"}, "[8]": {"conditions": "GSEA gene set HALLMARK_UV_RESPONSE_DN"}, "[9]": {"conditions": "GSEA gene set HALLMARK_UV_RESPONSE_UP"}, "[10]": {"conditions": "GSEA gene set HALLMARK_WNT_BETA_CATENIN_SIGNALING"}, "[11]": {"conditions": "GSEA gene set HALLMARK_XENOBIOTIC_METABOLISM"}}}
{"smiles": "COc1cc(N)cc2c1nc(C(F)F)n2-c1nc(N2CCCOCC2)nc(N2CCOCC2)n1", "note": "[KTC1101, 2-(difluoromethyl)-4-methoxy-1-(4-morpholino-6-(1,4-oxazepan-4-yl)-1,3,5-triazin-2-yl)-1H-benzo[d]imidazol-6-amine]", "values": [{"measurement": "enrichmentScore", "setting": "GSEA gene set HALLMARK_PEROXISOME", "result": -0.395}, {"measurement": "NES", "setting": "[1]", "result": -2.189}, {"measurement": "enrichmentScore", "setting": "[1]", "result": -0.5044}, {"measurement": "NES", "setting": "[2]", "result": -1.203}, {"measurement": "enrichmentScore", "setting": "[2]", "result": -0.2769}, {"measurement": "NES", "setting": "[3]", "result": -1.95}, {"measurement": "enrichmentScore", "setting": "[3]", "result": -0.5432}, {"measurement": "NES", "setting": "[4]", "result": -1.401}, {"measurement": "enrichmentScore", "setting": "[4]", "result": -0.3536}, {"measurement": "NES", "setting": "[5]", "result": 1.944}, {"measurement": "enrichmentScore", "setting": "[5]", "result": 0.6123}, {"measurement": "NES", "setting": "[6]", "result": 2.211}, {"measurement": "enrichmentScore", "setting": "[6]", "result": 0.5723}, {"measurement": "NES", "setting": "[7]", "result": -1.548}, {"measurement": "enrichmentScore", "setting": "[7]", "result": -0.347}, {"measurement": "NES", "setting": "[8]", "result": 1.23}, {"measurement": "enrichmentScore", "setting": "[8]", "result": 0.3315}, {"measurement": "NES", "setting": "[9]", "result": 1.315}, {"measurement": "enrichmentScore", "setting": "[9]", "result": 0.3557}, {"measurement": "NES", "setting": "[10]", "result": 0.901}, {"measurement": "enrichmentScore", "setting": "[10]", "result": 0.3071}, {"measurement": "NES", "setting": "[11]", "result": -1.2042}, {"measurement": "enrichmentScore", "setting": "[11]", "result": -0.2641}, {"measurement": "NES: Glycolysis / Gluconeogenesis", "setting": "GSEA KEGG mmu00010", "result": -1.905}, {"measurement": "enrichmentScore: Glycolysis / Gluconeogenesis", "setting": "GSEA KEGG mmu00010", "result": -0.5183}, {"measurement": "NES: Citrate cycle (TCA cycle)", "setting": "GSEA KEGG mmu00020", "result": -1.91}, {"measurement": "enrichmentScore: Citrate cycle (TCA cycle)", "setting": "GSEA KEGG mmu00020", "result": -0.5694}, {"measurement": "NES: Pentose phosphate pathway", "setting": "GSEA KEGG mmu00030", "result": -1.779}, {"measurement": "enrichmentScore: Pentose phosphate pathway", "setting": "GSEA KEGG mmu00030", "result": -0.5767}, {"measurement": "NES: Fructose and mannose metabolism", "setting": "GSEA KEGG mmu00051", "result": -1.345}, {"measurement": "enrichmentScore: Fructose and mannose metabolism", "setting": "GSEA KEGG mmu00051", "result": -0.4104}, {"measurement": "NES: Galactose metabolism", "setting": "GSEA KEGG mmu00052", "result": -1.484}, {"measurement": "enrichmentScore: Galactose metabolism", "setting": "GSEA KEGG mmu00052", "result": -0.4712}, {"measurement": "NES: Oxidative phosphorylation", "setting": "GSEA KEGG mmu00190", "result": -2.112}, {"measurement": "enrichmentScore: Oxidative phosphorylation", "setting": "GSEA KEGG mmu00190", "result": -0.4855}, {"measurement": "NES: Purine metabolism", "setting": "GSEA KEGG mmu00230", "result": 1.524}, {"measurement": "enrichmentScore: Purine metabolism", "setting": "GSEA KEGG mmu00230", "result": 0.4484}, {"measurement": "NES: Pyrimidine metabolism", "setting": "GSEA KEGG mmu00240", "result": -1.587}, {"measurement": "enrichmentScore: Pyrimidine metabolism", "setting": "GSEA KEGG mmu00240", "result": -0.5015}, {"measurement": "NES: Alanine, aspartate and glutamate metabolism", "setting": "GSEA KEGG mmu00250", "result": -1.481}, {"measurement": "enrichmentScore: Alanine, aspartate and glutamate metabolism", "setting": "GSEA KEGG mmu00250", "result": -0.506}, {"measurement": "NES: Glycine, serine and threonine metabolism", "setting": "GSEA KEGG mmu00260", "result": -2.025}, {"measurement": "enrichmentScore: Glycine, serine and threonine metabolism", "setting": "GSEA KEGG mmu00260", "result": -0.643}, {"measurement": "NES: Cysteine and methionine metabolism", "setting": "GSEA KEGG mmu00270", "result": -1.68}, {"measurement": "enrichmentScore: Cysteine and methionine metabolism", "setting": "GSEA KEGG mmu00270", "result": -0.4743}, {"measurement": "NES: Valine, leucine and isoleucine degradation", "setting": "GSEA KEGG mmu00280", "result": -1.453}, {"measurement": "enrichmentScore: Valine, leucine and isoleucine degradation", "setting": "GSEA KEGG mmu00280", "result": -0.399}, {"measurement": "NES: Arginine and proline metabolism", "setting": "GSEA KEGG mmu00330", "result": -1.547}, {"measurement": "enrichmentScore: Arginine and proline metabolism", "setting": "GSEA KEGG mmu00330", "result": -0.474}, {"measurement": "NES: Glutathione metabolism", "setting": "GSEA KEGG mmu00480", "result": -1.885}, {"measurement": "enrichmentScore: Glutathione metabolism", "setting": "GSEA KEGG mmu00480", "result": -0.5172}, {"measurement": "NES: Amino sugar and nucleotide sugar metabolism", "setting": "GSEA KEGG mmu00520", "result": -1.225}, {"measurement": "enrichmentScore: Amino sugar and nucleotide sugar metabolism", "setting": "GSEA KEGG mmu00520", "result": -0.3367}, {"measurement": "NES: Glycerolipid metabolism", "setting": "GSEA KEGG mmu00561", "result": -1.232}, {"measurement": "enrichmentScore: Glycerolipid metabolism", "setting": "GSEA KEGG mmu00561", "result": -0.3383}, {"measurement": "NES: Ether lipid metabolism", "setting": "GSEA KEGG mmu00565", "result": -1.318}, {"measurement": "enrichmentScore: Ether lipid metabolism", "setting": "GSEA KEGG mmu00565", "result": -0.4355}, {"measurement": "NES: Pyruvate metabolism", "setting": "GSEA KEGG mmu00620", "result": -1.8611}, {"measurement": "enrichmentScore: Pyruvate metabolism", "setting": "GSEA KEGG mmu00620", "result": -0.5447}, {"measurement": "NES: Glyoxylate and dicarboxylate metabolism", "setting": "GSEA KEGG mmu00630", "result": -2.109}, {"measurement": "enrichmentScore: Glyoxylate and dicarboxylate metabolism", "setting": "GSEA KEGG mmu00630", "result": -0.6578}, {"measurement": "NES: Propanoate metabolism", "setting": "GSEA KEGG mmu00640", "result": -1.418}, {"measurement": "enrichmentScore: Propanoate metabolism", "setting": "GSEA KEGG mmu00640", "result": -0.4326}, {"measurement": "NES: Terpenoid backbone biosynthesis", "setting": "GSEA KEGG mmu00900", "result": -2.318}, {"measurement": "enrichmentScore: Terpenoid backbone biosynthesis", "setting": "GSEA KEGG mmu00900", "result": -0.7921}, {"measurement": "NES: Drug metabolism - other enzymes", "setting": "GSEA KEGG mmu00983", "result": -1.978}, {"measurement": "enrichmentScore: Drug metabolism - other enzymes", "setting": "GSEA KEGG mmu00983", "result": -0.5867}, {"measurement": "NES: Carbon metabolism", "setting": "GSEA KEGG mmu01200", "result": -2.129}, {"measurement": "enrichmentScore: Carbon metabolism", "setting": "GSEA KEGG mmu01200", "result": -0.4924}, {"measurement": "NES: 2-Oxocarboxylic acid metabolism", "setting": "GSEA KEGG mmu01210", "result": -1.574}, {"measurement": "enrichmentScore: 2-Oxocarboxylic acid metabolism", "setting": "GSEA KEGG mmu01210", "result": -0.4801}, {"measurement": "NES: Fatty acid metabolism", "setting": "GSEA KEGG mmu01212", "result": -1.192}, {"measurement": "enrichmentScore: Fatty acid metabolism", "setting": "GSEA KEGG mmu01212", "result": -0.3243}, {"measurement": "NES: Biosynthesis of amino acids", "setting": "GSEA KEGG mmu01230", "result": -2.742}, {"measurement": "enrichmentScore: Biosynthesis of amino acids", "setting": "GSEA KEGG mmu01230", "result": -0.7082}, {"measurement": "NES: Nucleotide metabolism", "setting": "GSEA KEGG mmu01232", "result": -1.799}, {"measurement": "enrichmentScore: Nucleotide metabolism", "setting": "GSEA KEGG mmu01232", "result": -0.4975}, {"measurement": "NES: Biosynthesis of cofactors", "setting": "GSEA KEGG mmu01240", "result": -1.22}, {"measurement": "enrichmentScore: Biosynthesis of cofactors", "setting": "GSEA KEGG mmu01240", "result": -0.2823}, {"measurement": "NES: EGFR tyrosine kinase inhibitor resistance", "setting": "GSEA KEGG mmu01521", "result": 1.545}, {"measurement": "enrichmentScore: EGFR tyrosine kinase inhibitor resistance", "setting": "GSEA KEGG mmu01521", "result": 0.4546}]}
